Results taken from patent US7407982B2, “Oligo or polyalkylene glycol-coupled thrombin inhibitors” (HaemoSys GmbH, priority 2001, dated 2008).
Like-named read-outs stand apart in the source and are kept apart here.

Assays:
human α-thrombin = molecular target: T1, human α-thrombin (Homo sapiens, UniProt P00734); test: Determination of Ki for thrombin inhibition (chromogenic or fluorogenic substrate, Dixon); format: biochemical; settings: for KiTrypsin/KiThrombin: Example 8, selectivity quotient
T1 construct: 50 μl human α-thrombin (Kordia); purchased Kordia
Experimental: The Ki values are the average values of at least three calculations.
For determining the thrombin inhibiting effect of all reversibly binding inhibitors and inhibitor conjugates with inhibiting constants smaller than 1 nM, a fluorescence spectrometer (LS50B from the company Perkin Elmer) was used. […] The Ki values are the average values of at least three calculations.

trypsin = molecular target: T2, trypsin (Bos taurus, UniProt P00760); test: Ki values for trypsin, determined analogously; format: biochemical
T2 sequence (P00760 24-246): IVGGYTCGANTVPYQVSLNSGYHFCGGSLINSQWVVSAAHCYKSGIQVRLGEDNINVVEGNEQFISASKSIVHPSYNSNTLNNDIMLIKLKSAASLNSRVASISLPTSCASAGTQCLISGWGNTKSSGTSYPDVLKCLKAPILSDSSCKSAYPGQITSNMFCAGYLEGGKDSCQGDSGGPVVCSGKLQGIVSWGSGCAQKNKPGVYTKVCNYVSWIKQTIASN
Experimental: The Ki values for trypsin were determined analogously.
For optimizing the inhibitor conjugates, in particular of the following Examples 1 and 2, suitable groups R1 were sought which allow as strong a thrombin inhibition as possible. For examining the selectivity of the compounds, the inhibiting constants for trypsin were determined as well. The higher the quotient [KiTrypsin/KiThrombin], the more selectively the compound functions as a thrombin inhibitor. In order to facilitate the synthesis, this optimization was first carried out without coupling a polyalkylene glycol group to inhibitor molecules of formula (II) as listed in Table I. These compounds, which are active as thrombin inhibitors themselves, can be used as synthetic intermediates for the inhibitor conjugates of formula (I). As a central component, a glycyl-prolyl-dipeptide was consistently incorporated into the inhibitors.

[1] = Example 8, read-out: KiThrombin
[2] = Table I, formula (II) compounds

Row | Molecule | Ki (human α-thrombin; [2]) | Ki Trypsin/Ki Thrombin (human α-thrombin; Table I, selectivity quotient) | also measured
1 | 4-Methoxy-benezenesulfonyl-Asn(4-[MeO-PEG5000-CH2CH2CO—NHCH2]-benzyl-Pro-4-amidinobenzylamide |  |  | Ki (human α-thrombin; [1]): 0.19 nM
2 | 4-Methoxy-benzenesulfonyl-Lys(propionyl-PEG5000-OMe)-Pro-4-amidinobenzylamide |  |  | KiTrypsin/KiThrombin (human α-thrombin): 64; Ki (human α-thrombin; [1]): 0.95 nM; Ki (trypsin; Example 8, read-out: KiTrypsin): 61 nM
3 | N=C(N)c1ccc(CNC(=O)C2CCCN2C(=O)C(CC2CCCCC2)NCC(=O)O)cc1 [H-D-N(CH2—COOH)Cha-Pro-4-(amidino)benzylamide, reference compound] |  |  | KiTrypsin/KiThrombin (human α-thrombin): 12; Ki (human α-thrombin; [1]): 0.3 nM
4 | N=C(N)N1CCC(CNC(=O)C2CCCN2C(=O)C(CC2CCCCC2)NCC(=O)O)CC1 [H-D-N(CH2—COOH)Cha-Pro-4-(amidomethyl)-N(amidino)piperidine, reference compound] |  |  | KiTrypsin/KiThrombin (human α-thrombin): 173; Ki (human α-thrombin; [1]): 1.3 nM
5 | COc1ccc(S(=O)(=O)NC(CCCCN)C(=O)N2CCCC2C(=O)NCc2ccc(C(=N)N)cc2)cc1 (stereo not drawn) [No. 53, 4-Methoxy-benezenesulfonyl-Lys-Pro-4-amidinobenzylamide] |  |  | KiTrypsin/KiThrombin (human α-thrombin): 112; Ki (human α-thrombin; [1]): 0.73 nM
6 | COc1ccc(S(=O)(=O)NC(CC(=O)O)C(=O)N2CCCC2C(=O)NCc2ccc(C(=N)N)cc2)cc1 (stereo not drawn) [No. 55, 4-Methoxy-benezenesulfonyl-Asp-Pro-4-amidinobenzylamide] |  |  | KiTrypsin/KiThrombin (human α-thrombin): 48; Ki (human α-thrombin; [1]): 1.6 nM
7 | COc1cc(C)c(S(=O)(=O)NCC(=O)N2CCC[C@H]2C(=O)NCc2ccc(C(=N)N)cc2)c(C)c1C [compound 2] | 1.3 nM | 12.1 | Ki (trypsin; [2]): 15.7 nM
8 | N=C(N)c1ccc(CNC(=O)[C@@H]2CCCN2C(=O)CNS(=O)(=O)Cc2ccccc2)cc1 [compound 6] | 3.6 nM | 2.1 | 
9 | COc1ccc(S(=O)(=O)NCC(=O)N2CCC[C@H]2C(=O)NCc2ccc(C(=N)N)cc2)cc1OC [compound 8] | 4.7 nM | 4.2 | 
10 | N=C(N)c1ccc(CNC(=O)[C@@H]2CCCN2C(=O)CNS(=O)(=O)c2cc(Cl)c(Cl)cc2Cl)cc1 [compound 9] | 5.9 nM | 3.3 | 
11 | N=C(N)c1ccc(CNC(=O)[C@@H]2CCCN2C(=O)CNS(=O)(=O)c2cccc3ccccc23)cc1 [compound 10] | 7.8 nM | 0.5 | 
12 | N=C(N)c1ccc(CNC(=O)[C@@H]2CCCN2C(=O)CNS(=O)(=O)c2cc(Cl)cc(Cl)c2)cc1 [compound 11] | 8.5 nM | 0.4 | 
13 | N=C(N)c1ccc(CNC(=O)[C@@H]2CCCN2C(=O)CNS(=O)(=O)c2ccc3ccccc3c2)cc1 [compound 12] | 8.5 nM | 6.8 | Ki Trypsin/Ki Thrombin (human α-thrombin; Table 2, selectivity quotient): 6.8
14 | N=C(N)c1ccc(CNC(=O)[C@@H]2CCCN2C(=O)CNS(=O)(=O)c2ccc(Cl)cc2)cc1 [compound 13] | 10 nM | 2.7 | 
15 | Cc1cc(S(=O)(=O)NCC(=O)N2CCC[C@H]2C(=O)NCc2ccc(C(=N)N)cc2)c(Cl)cc1Cl [compound 14] | 10.5 nM | 1.1. | 
16 | N=C(N)c1ccc(CNC(=O)[C@@H]2CCCN2C(=O)CNS(=O)(=O)c2ccccc2)cc1 [compound 15] | 10.8 nM | 0.96 | 
17 | Cc1c(C)c(C)c(S(=O)(=O)NCC(=O)N2CCC[C@H]2C(=O)NCc2ccc(C(=N)N)cc2)c(C)c1C [compound 16] | 12.7 nM | 2.2 | 

Second part, led by results:

Row | Ki (human α-thrombin; [2]) | Ki Trypsin/Ki Thrombin (human α-thrombin; Table I, selectivity quotient) | Molecule | also measured
18 | 0.44 nM | 45 | COc1ccc(S(=O)(=O)NCC(=O)N2CCC[C@H]2C(=O)NCc2ccc(C(=N)N)cc2)cc1Cl [1a] | 
19 | 0.64 nM | 20 | COc1ccc(S(=O)(=O)NCC(=O)N2CCC[C@H]2C(=O)NCc2ccc(C(=N)N)cc2)cc1C [1b] | 
20 | 2.5 nM | 2.3 | N=C(N)c1ccc(CNC(=O)[C@@H]2CCCN2C(=O)CNS(=O)(=O)c2ccc(Cl)c(Cl)c2)cc1 [4a] | 
21 | 2.8 nM | 2.9 | Cc1cccc(S(=O)(=O)NCC(=O)N2CCC[C@H]2C(=O)NCc2ccc(C(=N)N)cc2)c1 [4b] | 
22 | 48 nM | 0.47 | N#Cc1cccc(S(=O)(=O)NCC(=O)N2CCC[C@H]2C(=O)NCc2ccc(C(=N)N)cc2)c1 [33a] | 
23 | 66 nM | 0.42 | CCOc1ccc(S(=O)(=O)NCC(=O)N2CCC[C@H]2C(=O)NCc2ccc(C(=N)N)cc2)cc1 [33b] | 
